test system: HCV replicon cells; assay: HCV replicon FRET / luciferase assay (96-well plates); format: cell-based; conditions: Hepatitis C virus, 24 h, Table 1d (class symbols); HCV replicon; read-out: EC50
Excerpt: FRET Assay Preparation. To perform the HCV FRET screening assay, 96-well cell culture plates were used. The FRET peptide (Anaspec, Inc.) (Taliani et al., Anal. Biochem. 1996, 240, 60-67) contains a fluorescence donor, EDANS, near one end of the peptide and an acceptor, DABCYL, near the other end. The fluorescence of the peptide is quenched by […] resonance energy transfer (RET) between the donor and the acceptor, but as the NS3 protease cleaves the peptide the products are released from RET quenching and the fluorescence of the donor becomes apparent. The assay reagent was made as follows: 5× cell Luciferase cell culture lysis reagent from Promega (#E153A) diluted to 1× with dH2O, NaCl added to 150 mM final, the FRET peptide diluted to 20 μM final from a 2 mM stock.
To prepare plates, HCV replicon cells, with or without a Renilla luciferase reporter gene, were trypsinized and placed into each well of a 96-well plate with titrated test compounds added in columns 3 through 12; columns 1 and 2 contained a control compound (HCV protease inhibitor), and the bottom row contained cells without compound. The plates were then placed in a CO2 incubator at 37° C.
Assays. Subsequent to addition of the test compounds described above (FRET Assay Preparation), at various times the plate was removed and Alamar blue solution (Trek Diagnostics, #00-100) was added per well as a measure of cellular toxicity. After reading in a Cytoflour 4000 instrument (PE Biosystems), plates were rinsed with PBS and then used for FRET assay by the addition of 30 ul of the FRET peptide assay reagent described above (FRET Assay Preparation) per well. The plate was then placed into the Cytoflour 4000 instrument which had been set to 340 excite/490 emission, automatic mode for 20 cycles and the plate read in a kinetic mode. Typically, the signal to noise using an endpoint analysis after the reads was at least three-fold. Alternatively, after Alamar blue reading, plates were rinsed with PBS, 50 ul of DMEM (high glucose) without phenol red was added and plates were then used for luciferase assay using the Promega Dual-Glo Luciferase Assay System.
Compound analysis was determined by quantification of the relative HCV replicon inhibition and the relative cytotoxicity values. To calculate cytoxicity values, the average Alamar Blue fluorescence signals from the control wells were set as 100% non-toxic. The individual signals in each of the compound test wells were then divided by the average control signal and multiplied by 100% to determine […]. To calculate the HCV replicon inhibition values, an average background value was obtained from the two wells containing the highest amount of HCV protease inhibitor at the end of the assay period. These numbers were similar to those obtained from naïve Huh-7 cells.
The background numbers were then subtracted from the average signal obtained from the control wells and this number was used as 100% activity. The individual signals in each of the compound test wells were then divided by the averaged control values after background subtraction and multiplied by 100% to determine percent activity. EC50 values for a protease inhibitor titration were calculated as the concentration which caused a 50% reduction in FRET or luciferase activity. The two numbers generated for the compound plate, percent cytoxicity and percent activity were used to determine compounds of interest for further analysis.

| Structure (SMILES) | EC50 [µM] |
| --- | --- |
| CNC(=O)c1c(-c2ccc(F)cc2)oc2ccc(-c3cc(C(=O)NC4(c5ccccn5)CC4)c(OCCCN(C)C)cc3C)cc12 | 0.001 to 0.25 |
| CNC(=O)c1c(-c2ccc(F)cc2)oc2ccc(-c3cc(C(=O)NC4(c5cnn(C)c5)CC4)ccc3C)cc12 | 0.001 to 0.25 |
| CNC(=O)c1c(-c2ccc(F)cc2)oc2ccc(-c3cc(C(=O)NC4(c5ccncn5)CC4)c(OC)cc3C)c(F)c12 | 0.001 to 0.25 |
| CNC(=O)c1c(-c2ccc(F)cc2)oc2ccc(-c3cc(C(=O)NC4(c5cccnn5)CC4)ccc3C)cc12 | 0.001 to 0.25 |
| CNC(=O)c1c(-c2ccc(F)cc2)oc2ccc(-c3cc(C(=O)NC4(c5ccnnc5)CC4)c(OC)cc3C)cc12 | 0.001 to 0.25 |
| CNC(=O)c1c(-c2ccc(F)cc2)oc2ccc(-c3cc(C(=O)NC4(c5ccnnc5)CC4)c(OC)cc3C)c(F)c12 [drawing 701] | 0.001 to 0.25 |
| CNC(=O)c1c(-c2ccc(F)cc2)oc2ccc(-c3cc(C(=O)NC4(c5ccccn5)CC4)c(OCCC(C)C)cc3C)cc12 | 0.001 to 0.25 |
| CNC(=O)c1c(-c2ccc(F)cc2)oc2ccc(-c3cc(C(=O)NC4(c5nccc(C)n5)CC4)ccc3C)c(F)c12 | 0.001 to 0.25 |
| CCCCOc1cc(C)c(-c2ccc3oc(-c4ccc(F)cc4)c(C(=O)NC)c3c2)cc1C(=O)NC1(c2ccccn2)CC1 | 0.001 to 0.25 |
| CNC(=O)c1c(-c2ccc(F)cc2)oc2ccc(-c3cc(C(=O)NC4(c5nc(C)cc(C)n5)CC4)c(OC)cc3C)cc12 | 0.001 to 0.25 |
| CNC(=O)c1c(-c2ccc(F)cc2)oc2ccc(-c3cc(C(=O)NC4(c5ccccn5)CC4)c(OCCN4CCN(C)CC4)cc3C)cc12 | 0.001 to 0.25 |
| CNC(=O)c1c(-c2ccc(F)cc2)oc2ccc(-c3cc(C(=O)NC4(c5nccc(C)n5)CC4)ccc3C)cc12 | 0.001 to 0.25 |
| CNC(=O)c1c(-c2ccc(F)cc2)oc2ccc(-c3cc(C(=O)NC4(c5ccccn5)CC4)c(OCCc4ccccc4)cc3C)cc12 | 0.001 to 0.25 |
| CNC(=O)c1c(-c2ccc(F)cc2)oc2ccc(-c3cc(C(=O)NC4(c5ccccn5)CC4)c(OCCc4ccc(N(C)C)cc4)cc3C)cc12 | 0.001 to 0.25 |
| CNC(=O)c1c(-c2ccc(F)cc2)oc2ccc(-c3cc(C(=O)NC4(c5ccccn5)CC4)c(OCC#N)cc3C)cc12 | 0.001 to 0.25 |
| CNC(=O)c1c(-c2ccc(F)cc2)oc2ccc(-c3cc(C(=O)NC4(c5cccnn5)CC4)ccc3C)c(F)c12 | 0.001 to 0.25 |
| CNC(=O)c1c(-c2ccc(F)cc2)oc2ccc(-c3cc(C(=O)NC4(c5ncc(C)cn5)CC4)ccc3C)cc12 | 0.001 to 0.25 |
| CNC(=O)c1c(-c2ccc(F)cc2)oc2ccc(-c3cc(C(=O)NC4(c5cccnn5)CC4)c(OC)cc3C)c(F)c12 | 0.001 to 0.25 |

| Structure (SMILES) | EC50 [µM] |
| --- | --- |
| CNC(=O)c1c(-c2ccc(F)cc2)oc2ccc(-c3cc(C(=O)NC4(c5ccccn5)CC4)c(OCc4ccncc4)cc3C)cc12 | 0.001 to 0.25 |
| CNC(=O)c1c(-c2ccc(F)cc2)oc2ccc(-c3cc(C(=O)NC4(c5cnccn5)CC4)c(OC)cc3C)c(F)c12 | 0.001 to 0.25 |
| CNC(=O)c1c(-c2ccc(F)cc2)oc2ccc(-c3cc(C(=O)NC4(c5ccccn5)CC4)c(OCCN4CCOCC4)cc3C)cc12 | 0.001 to 0.25 |
| CNC(=O)c1c(-c2ccc(F)cc2)oc2ccc(-c3cc(C(=O)NC4(c5ncc(C)cn5)CC4)c(OC)cc3C)c(F)c12 | 0.001 to 0.25 |
| CNC(=O)c1c(-c2ccc(F)cc2)oc2ccc(-c3cc(C(=O)NC4(C(=O)Nc5nc(C)no5)CC4)c(OC)cc3C)cc12 | 0.001 to 0.25 |
| CNC(=O)c1c(-c2ccc(F)cc2)oc2ccc(-c3cc(C(=O)NC4(c5nc(C)cc(C)n5)CC4)ccc3C)c(F)c12 | 0.001 to 0.25 |
| CNC(=O)c1c(-c2ccc(F)cc2)oc2ccc(-c3cc(C(=O)NC4(c5ccccn5)CC4)c(OCc4ccccc4Cl)cc3C)cc12 | 0.001 to 0.25 |
| CNC(=O)c1c(-c2ccc(F)cc2)oc2ccc(-c3cc(C(=O)NC4(c5nccc(C)n5)CC4)c(OC)cc3C)c(F)c12 | 0.001 to 0.25 |
| CNC(=O)c1c(-c2ccc(F)cc2)oc2ccc(-c3cc(C(=O)NC4(c5ccccn5)CC4)c(OCCc4ccc(OC)cc4)cc3C)cc12 | 0.001 to 0.25 |
| CNC(=O)c1c(-c2ccc(F)cc2)oc2ccc(-c3cc(C(=O)NC4(c5ccncn5)CC4)c(OC)cc3C)cc12 | 0.001 to 0.25 |
| CNC(=O)c1c(-c2ccc(F)cc2)oc2ccc(-c3cc(C(=O)NC4(c5ncc(F)cn5)CC4)c(OC)cc3C)cc12 | 0.001 to 0.25 |
| CNC(=O)c1c(-c2ccc(F)cc2)oc2ccc(-c3cc(C(=O)NC4(c5ccccn5)CC4)c(OCC4CCCCO4)cc3C)cc12 (stereo not drawn) | 0.001 to 0.25 |
| CNC(=O)c1c(-c2ccc(F)cc2)oc2ccc(-c3cc(C(=O)NC4(c5nccc(C)n5)CC4)c(OC)cc3C)cc12 | 0.001 to 0.25 |
| CNC(=O)c1c(-c2ccc(F)cc2)oc2ccc(-c3cc(C(=O)NC4(c5ccccn5)CC4)c(OCCCOC)cc3C)cc12 | 0.001 to 0.25 |
| CNC(=O)c1c(-c2ccc(F)cc2)oc2ccc(-c3cc(C(=O)NC4(c5nc(C)cc(C)n5)CC4)ccc3C)cc12 | 0.001 to 0.25 |
| CNC(=O)c1c(-c2ccc(F)cc2)oc2ccc(-c3cc(C(=O)NC4(c5ccccn5)CC4)c(OC4CCC4)cc3C)cc12 | 0.001 to 0.25 |
| CNC(=O)c1c(-c2ccc(F)cc2)oc2ccc(-c3cc(C(=O)NC4(c5ccccn5)CC4)c(OCC4CCOC4)cc3C)cc12 (stereo not drawn) | 0.001 to 0.25 |
| CNC(=O)c1c(-c2ccc(F)cc2)oc2ccc(-c3cc(C(=O)NC4(c5ccccn5)CC4)c(OCCN(C)C)cc3C)cc12 | 0.001 to 0.25 |

same assay, conditions: Hepatitis C virus, 24 h, second table titled Table 1d (numbers); HCV replicon; read-out: EC50

| Structure (SMILES) | EC50 [µM] |
| --- | --- |
| CNC(=O)c1c(-c2ccc(F)cc2)oc2ccc(-c3cc(C(=O)NC4(c5ccncn5)CC4)ccc3C)cc12 [drawing 713] | 0.002 |
| CNC(=O)c1c(-c2ccc(F)cc2)oc2ccc(-c3cc(C(=O)NC4(c5ccnnc5)CC4)c(OC)cc3C)c(F)c12 [drawing 715] | 0.056 |
| CNC(=O)c1c(-c2ccc(F)cc2)oc2ccc(-c3cc(C(=O)NC4(c5ncc(F)cn5)CC4)c(OC)cc3C)c(F)c12 [drawing 714] | 0.01 |

same assay, conditions: Hepatitis C virus, Table 1b; HCV replicon; read-out: EC50

| Structure (SMILES) | EC50 [µM] |
| --- | --- |
| CNC(=O)c1c(-c2ccc(F)cc2)oc2ccc(-c3ccc(-c4cccc(C(=O)O)c4)c(C(=O)NCC(C)C)c3)cc12 | 1 to 10 |
| CCNC(=O)c1cc(-c2ccc3oc(-c4ccc(F)cc4)c(C(=O)NC)c3c2F)c(C)cc1OC | < 0.25 |
| CNC(=O)c1c(-c2ccc(F)cc2)oc2ccc(-c3ccc(-c4ccoc4)c(C(=O)NCC(C)C)c3)cc12 | < 0.25 |
| CNC(=O)c1c(-c2ccc(F)cc2)oc2ccc(-c3cc(C(=O)NC4(c5cc(C)on5)CC4)ccc3C)cc12 | < 0.25 |
| CNC(=O)c1c(-c2ccc(F)cc2)oc2ccc(-c3cc(C(=O)NCC(C)C)ccc3OCCCN3C(=O)c4ccccc4C3=O)cc12 | > 10 |
| CCCn1cc(-c2ccc(-c3ccc4oc(-c5ccc(F)cc5)c(C(=O)NC)c4c3)cc2C(=O)NCC(C)C)cn1 | < 0.25 |
| CNC(=O)c1c(-c2ccc(F)cc2)oc2ccc(-c3cc(C(=O)NC4(c5nnc(-c6ccccc6OC)[nH]5)CC4)ccc3C)cc12 | < 0.25 |
| CNC(=O)c1c(-c2ccc(F)cc2)oc2ccc(-c3cc(C(=O)NC4(c5cncnc5)CC4)ccc3C)cc12 | < 0.25 |
| CNC(=O)c1c(-c2ccc(F)cc2)oc2ccc(-c3ccc(CCC(C)C)c(C(=O)NCC(C)C)c3)cc12 | > 10 |
| CNC(=O)c1c(-c2ccc(F)cc2)oc2ccc(-c3cc(C(=O)NC4(c5cn(C)cn5)CC4)c(OC)cc3C)cc12 | < 0.25 |
| CCCc1nnc(C2(NC(=O)c3ccc(C)c(-c4ccc5oc(-c6ccc(F)cc6)c(C(=O)NC)c5c4)c3)CC2)[nH]1 | < 0.25 |
| CNC(=O)c1c(-c2ccc(F)cc2)oc2ccc(-c3ccc(-c4ccccc4Cl)c(C(=O)NC4(c5ccccn5)CC4)c3)cc12 | < 0.25 |
| CNC(=O)c1c(-c2ccc(F)cc2)oc2ccc(-c3cc(C(=O)OC)c(OC)cc3OCC(N)=O)cc12 | 1 to 10 |
| CNC(=O)c1c(-c2ccc(F)cc2)oc2ccc(-c3cc(C(=O)NC4(c5noc(-c6ccccc6)n5)CC4)ccc3C)cc12 | < 0.25 |
| CNC(=O)c1c(-c2ccc(F)cc2)oc2ccc(-c3cccc(C(=O)NC(C)(C)c4cccc(C)n4)c3)cc12 | 0.25 to 1 |
| CNC(=O)c1c(-c2ccc(F)cc2)oc2ccc(-c3cc(C(=O)NCC(C)C)ccc3OCCN(Cc3ccccc3)Cc3ccccc3)cc12 | 1 to 10 |
| CNC(=O)c1c(-c2ccc(F)cc2)oc2ccc(-c3cc(C(=O)NC4(c5noc(C)n5)CC4)c(OC)cc3C)cc12 | < 0.25 |

same assay, conditions: Table 1b; HCV replicon; read-out: EC50

| Structure (SMILES) | EC50 [µM] |
| --- | --- |
| CNC(=O)c1c(-c2ccc(F)cc2)oc2ccc(-c3cc(C(=O)NCC(C)C)ccc3OCCC3CNCCO3)cc12 (stereo not drawn) [drawing 567] | < 0.25 |
